The values that follow come from patent US20260364215A1, “Radiopharmaceutical Compositions Targeting Ephrin Type-A Receptor 2 and Uses Thereof” (PeptiDream Inc., priority 2022, published 2026).

pKd: −log10 of the molar value. Like-named read-outs stand apart in the source and are kept apart here. Numbered stars: 1 amine (or outer) side, 2 acyl side, 3 side chain; on linkers, the order of the positions; unused ones are H or OH. Bridge positions count the residues as written; N and C are the ends. Square brackets hold non-standard residues; d marks the D form. Side chains are listed from the residue outwards. Peptide text beside a SMILES is read from it. * marks the point of attachment. DOTA(Lu) = O=C1CN2CCN3CCN(CC(=O)*)CCN(CC2)CC(=O)[O][Lu]([O]1)[O]C(=O)C3; X4 = CC(C)(C)C[C@H](CNCCCC[C@H](N[*:1])C(=O)[*:2])N[*:3]; DOTA = O=C(O)CN1CCN(CC(=O)O)CCN(CC(=O)*)CCN(CC(=O)O)CC1; Trp(1-Me,7-Cl) = Cn1cc(C[C@H](N)C(=O)O)c2cccc(Cl)c21; Piperazinyl(4-CH2COOH) = O=C(O)CN1CCN(*)CC1; Trp(1-Me) = Cn1cc(C[C@H](N)C(=O)O)c2ccccc21; d(tBuAla) = CC(C)(C)C[C@@H](N)C(=O)O; NMe3Pal = CN[C@@H](Cc1cccnc1)C(=O)O; Gly(cBu) = N[C@H](C(=O)O)C1CCC1; NMeE = CN[C@@H](CCC(=O)O)C(=O)O; Aad = N[C@@H](CCCC(=O)O)C(=O)O; CO = O=C([*:1])[*:2]

This assay has as its target T1, Recombinant Human EphA2 Fc Protein (Homo sapiens, UniProt P29317).
T1 construct: purchased Elabscience
Kind of assay: Interaction analysis (kinetics, KD) of peptides and conjugates against EphA2 by SPR, Biacore T200, single-cycle kinetics (Examples B15 and B22). It counts as binding. The procedure, abridged: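 Biacore T200 SPR with Fc-tagged human EphA2 captured via anti-human antibody; running buffer HBS-P+ pH 7.4 with 1% DMSO, 25 °C. Five serial dilutions of peptide or conjugate run by single-cycle kinetics; KD from ka and kd after baseline subtraction.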
A general note: Surface plasmon resonance follows binding to a sensor surface in real time, without labels.

T1 sequence (P29317 24-534 limits assumed): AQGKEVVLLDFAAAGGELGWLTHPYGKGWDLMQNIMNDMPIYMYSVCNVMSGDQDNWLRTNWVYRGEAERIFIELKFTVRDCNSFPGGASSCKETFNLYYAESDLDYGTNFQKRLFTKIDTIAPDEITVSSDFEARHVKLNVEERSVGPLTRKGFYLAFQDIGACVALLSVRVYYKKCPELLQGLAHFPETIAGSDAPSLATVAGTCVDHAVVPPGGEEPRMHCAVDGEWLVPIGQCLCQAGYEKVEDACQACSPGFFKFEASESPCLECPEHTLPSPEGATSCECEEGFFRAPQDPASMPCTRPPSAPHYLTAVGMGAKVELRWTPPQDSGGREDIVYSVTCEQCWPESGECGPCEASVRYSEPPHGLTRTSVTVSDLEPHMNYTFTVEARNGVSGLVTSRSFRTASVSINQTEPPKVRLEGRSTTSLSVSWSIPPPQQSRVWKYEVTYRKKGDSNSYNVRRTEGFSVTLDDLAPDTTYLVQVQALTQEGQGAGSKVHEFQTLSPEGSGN

Turning to `C[C@H]1NC(=O)CSC[C@@H](C(N)=O)NC(=O)[C@H](CCCCNC(=O)[C@@H](Cc2ccccc2)NC(=O)CN2CCN(CC(=O)O)CCN(CC(=O)O)CCN(CC(=O)O)CC2)NC(=O)[C@H]([C@@H](C)O)NC(=O)[C@H](Cc2cn(C)c3ccccc23)NC(=O)[C@H](CCCCNC(=O)N2CCN(CC(=O)O)CC2)NC(=O)[C@H](Cc2cn(C)c3c(Cl)cccc23)NC(=O)[C@H](CCC(=O)O)N(C)C(=O)[C@H](CCCC(N)=O)NC(=O)[C@H](C2CCC2)NC(=O)[C@H](CC(N)=O)NC(=O)[C@H](Cc2cccnc2)N(C)C1=O.[Lu+3]` [PDC_EphA2-00027129] ({CH2CO}-[dA][NMe3Pal]N[Gly(cBu)][Aad](NH2)[NMeE][Trp(1-Me,7-Cl)]K([CO-Piperazinyl(4-CH2COOH)])[Trp(1-Me)]TK([dF-DOTA])C-NH2; thioether N-12), the pKd (commonly the Kd on a negative log10 scale, so that one unit is a factor of ten) (conjugates, Biacore T200 according to Example B15, Table B16, read-out: SPR Kd) is above 9.00.

Turning to `C[C@H]1NC(=O)CSC[C@@H](C(=O)N[C@H](CCC(=O)O)C(N)=O)NC(=O)[C@H](CCCC(N)=O)NC(=O)[C@H]([C@@H](C)O)NC(=O)[C@H](Cc2cn(C)c3ccccc23)NC(=O)[C@H](CCCCNC(=O)N2CCN(CC(=O)O)CC2)NC(=O)[C@H](Cc2cn(C)c3c(Cl)cccc23)NC(=O)[C@H](CCC(=O)O)N(C)C(=O)[C@H](CCCCNC(=O)[C@@H](CC(C)(C)C)NC(=O)CN2CCN3CCN4CCN(CC2)CC(=O)[O][Lu]([O]C(=O)C3)[O]C(=O)C4)NC(=O)[C@H](C2CCC2)NC(=O)[C@H](CC(N)=O)NC(=O)[C@H](Cc2cccnc2)N(C)C1=O` [PDC_EphA2-00027130] ({CH2CO}-[dA][NMe3Pal]N[Gly(cBu)]K([d(tBuAla)-DOTA(Lu)])[NMeE][Trp(1-Me,7-Cl)]K([CO-Piperazinyl(4-CH2COOH)])[Trp(1-Me)]T[Aad](NH2)C[dE]-NH2; thioether N-12), the pKd is above 9.00.

Consider `C[C@H]1NC(=O)CSC[C@@H](C(N)=O)NC(=O)[C@H](CCCCNC[C@@H](CC(C)(C)C)NC(=O)CN2CCN3CCN4CCN(CC2)CC(=O)[O][Lu]([O]C(=O)C3)[O]C(=O)C4)NC(=O)[C@H]([C@@H](C)O)NC(=O)[C@H](Cc2cn(C)c3ccccc23)NC(=O)[C@H](CCCCNC(=O)N2CCN(CC(=O)O)CC2)NC(=O)[C@H](Cc2cn(C)c3ccccc23)NC(=O)[C@H](CCC(=O)O)N(C)C(=O)[C@H](CCCC(N)=O)NC(=O)[C@H](C2CCC2)NC(=O)[C@H](CC(N)=O)NC(=O)[C@H](Cc2cccnc2)N(C)C1=O` [PDC_EphA2-00027131] ({CH2CO}-[dA][NMe3Pal]N[Gly(cBu)][Aad](NH2)[NMeE][Trp(1-Me)]K([CO-Piperazinyl(4-CH2COOH)])[Trp(1-Me)]T[X4](DOTA(Lu))C-NH2; thioether N-12), for which the pKd is above 9.00.
